The values that follow come from US10280149B2, “Therapeutic compounds and uses thereof” (GENENTECH, INC., priority 2015, dated 2019).

The assay concerns the target Full length KDM2B (Homo sapiens (Human), UniProt Q8NHM5). The assay is described as follows: KDM2B TR-FRET assay for determining inhibitor IC50. It counts as biochemical. Particulars: TR-FRET (HTRF), biotin-H3K36me2 peptide substrate, 2-OG 0.3 μM or 6 μM. From the text: KDM2B TR-FRET Assay for Determining Inhibitor IC50
The KDM2B TR-FRET Assay described above represents an additional embodiment of the invention.
Background: TR-FRET usually uses a lanthanide donor and a delayed reading to cut background.

What is called pIC50 is the IC50 on a negative log10 scale, so that one unit is a factor of ten. A lower pIC50 goes with a large IC50.

The structures appear in SMILES notation. pIC50: −log10 of the molar value. Counter-ions that a name gives are not always drawn.

Full length KDM2B, sequence (Q8NHM5 whole entry): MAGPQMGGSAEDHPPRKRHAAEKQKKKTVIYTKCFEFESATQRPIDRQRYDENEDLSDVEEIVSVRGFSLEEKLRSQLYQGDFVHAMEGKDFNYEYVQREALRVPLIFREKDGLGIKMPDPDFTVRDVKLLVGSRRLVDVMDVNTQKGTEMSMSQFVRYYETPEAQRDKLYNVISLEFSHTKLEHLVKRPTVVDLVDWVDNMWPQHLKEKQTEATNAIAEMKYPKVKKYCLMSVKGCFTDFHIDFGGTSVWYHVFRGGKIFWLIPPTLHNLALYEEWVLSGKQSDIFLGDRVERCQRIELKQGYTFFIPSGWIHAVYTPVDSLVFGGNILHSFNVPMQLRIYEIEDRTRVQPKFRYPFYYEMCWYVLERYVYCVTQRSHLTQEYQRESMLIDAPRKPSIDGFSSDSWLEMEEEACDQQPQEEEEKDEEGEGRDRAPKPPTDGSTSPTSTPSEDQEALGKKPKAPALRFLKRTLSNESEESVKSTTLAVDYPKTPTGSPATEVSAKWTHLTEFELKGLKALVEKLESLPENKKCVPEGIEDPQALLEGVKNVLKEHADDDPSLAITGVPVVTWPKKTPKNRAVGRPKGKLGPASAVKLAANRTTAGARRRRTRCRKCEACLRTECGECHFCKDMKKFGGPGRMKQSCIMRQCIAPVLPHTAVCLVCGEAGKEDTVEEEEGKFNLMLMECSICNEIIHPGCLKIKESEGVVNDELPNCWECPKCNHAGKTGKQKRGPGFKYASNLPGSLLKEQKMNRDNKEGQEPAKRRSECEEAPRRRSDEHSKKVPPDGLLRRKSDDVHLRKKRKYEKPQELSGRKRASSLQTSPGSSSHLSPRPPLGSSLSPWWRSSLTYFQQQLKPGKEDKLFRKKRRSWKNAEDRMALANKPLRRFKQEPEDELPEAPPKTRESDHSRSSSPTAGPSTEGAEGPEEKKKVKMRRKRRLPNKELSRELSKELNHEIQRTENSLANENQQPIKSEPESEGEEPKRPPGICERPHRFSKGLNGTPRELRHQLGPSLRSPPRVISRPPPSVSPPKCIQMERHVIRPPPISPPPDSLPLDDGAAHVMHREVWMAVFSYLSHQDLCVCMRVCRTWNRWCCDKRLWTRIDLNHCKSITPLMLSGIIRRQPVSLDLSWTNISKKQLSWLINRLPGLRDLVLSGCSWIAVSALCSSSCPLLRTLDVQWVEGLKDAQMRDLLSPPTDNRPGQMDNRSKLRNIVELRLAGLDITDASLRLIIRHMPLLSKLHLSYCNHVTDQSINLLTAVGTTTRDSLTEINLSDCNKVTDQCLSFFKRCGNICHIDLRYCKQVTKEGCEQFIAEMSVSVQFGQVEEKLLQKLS

For the compound `CCCN1CCCC(C(=O)c2cc(OC)cc(OC)c2)C1` (centres unmarked) [Example 105, (3,5-dimethoxyphenyl)-(1-propyl-3-piperidyl)methanone], the pIC50 is 6.57. With `COc1ccc2cc(C(=O)C3CCCN(C4COC4)C3)ccc2c1` (centres unmarked) [Example 14, (6-methoxy-2-naphthyl)-[1-(oxetan-3-yl)-3-piperidyl]methanone] the figure was 5.92; with `O=C(c1ccc(-c2ccccc2)cc1)[C@@H]1CCCN(CC2CC2)C1` [Example 32, [(3R)-1-(cyclopropylmethyl)-3-piperidyl]-(4-phenylphenyl)methanone], 5.39; with `CCC[C@H]1CCN(C2CCC2)C[C@@H]1C(=O)c1ccc2c(CC#N)c(OC)ccc2c1` (stereo in doubt) [Example 184d, 2-(6-(1-cyclobutyl-4-propylpiperidine-3-carbonyl)-2-methoxynaphthalen-1-yl)acetonitrile], 6.58. The result for `C[C@H]1CCN(CC2CC2)C[C@@H]1C(=O)c1ccc2cc(C#N)ccc2c1` (stereo in doubt) [Example 160a, 6-(1-(cyclopropylmethyl)-4-methylpiperidine-3-carbonyl)-2-naphthonitrile] reads 5.77; that for `CCCN1CCCC(C(=O)c2ccc(C(F)(F)F)cc2)C1` (centres unmarked) [Example 100, (1-propyl-3-piperidyl)-[4-(trifluoromethyl)phenyl]methanone], 5.92; that for `CNC(=O)c1cc(C(=O)C2CCCN(CC3CC3)C2)cc2ccccc12` (centres unmarked) [Example 40, 3-[1-(cyclopropylmethyl)piperidine-3-carbonyl]-N-methyl-naphthalene-1-carboxamide], 6.20. The result for `O=C(c1ccc2ccccc2c1F)C1CCCN(CC2CC2)C1` (centres unmarked) [Example 128, (1-(cyclopropylmethyl)piperidin-3-yl)(1-fluoronaphthalen-2-yl)methanone] reads 6.88. As to `O=C(c1ccc2cnccc2c1)C1CCCN(C2CCC2)C1` (centres unmarked) [Example 135], the pIC50 was 6.65. Regarding `CCC[C@H]1CCN(C2CCC2)C[C@H]1C(=O)c1ccc2cc(OC)ccc2c1` (single isomer, unassigned) [Example 140c, (1-cyclobutyl-4-propylpiperidin-3-yl)(6-methoxynaphthalen-2-yl)methanone], the pIC50 is 8.26. With `COc1ccc2cc(C(=O)[C@@H]3CN(C4CCC4)CC[C@@H]3CC(C)C)ccc2c1CC#N` (stereo in doubt) [Example 185a, 2-(6-(1-cyclobutyl-4-isobutylpiperidine-3-carbonyl)-2-methoxynaphthalen-1-yl)acetonitrile] the figure was 7.27; with `CCCN1CCCC(C(=O)c2cccc(OC)c2)C1` (centres unmarked) [Example 98, (3-methoxyphenyl)-(1-propyl-3-piperidyl)methanone], 5.80; with `COc1ccc2cc(C(=O)C3CN(C4CCC4)CCN3CC3CC3)ccc2c1` (centres unmarked) [Example 192, [4-cyclobutyl-1-(cyclopropylmethyl)piperazin-2-yl]-(6-methoxy-2-naphthyl)methanone], 6.41. Take `COc1ccc2cc(C(=O)[C@@H]3CCCN(C4CCC4)C3)ccc2c1CC#N` (stereo in doubt) [Example 179b, 2-(6-(1-cyclobutylpiperidine-3-carbonyl)-2-methoxynaphthalen-1-yl)acetonitrile]: the pIC50 is 6.44. The result for `CCCN1CCCC(C(=O)c2ccc3c(C)c(C#N)ccc3c2)C1` (centres unmarked) [Example 70, 1-methyl-6-(1-propylpiperidine-3-carbonyl)-2-naphthonitrile] reads 7.04; that for `CCCN1CCCC(C(=O)c2ccc3c(c2)OCCO3)C1` (centres unmarked) [Example 108, 2,3-dihydro-1,4-benzodioxin-6-yl-(1-propyl-3-piperidyl)methanone], 6.53. The result for `CNC(=O)c1cc(C(=O)C2CCCN(C3CCCC3)C2)cc2ccccc12` (centres unmarked) [Example 41, 3-(1-cyclopentylpiperidine-3-carbonyl)-N-methyl-naphthalene-1-carboxamide] reads 6.15; that for `COc1ccc2cc(C(=O)[C@H]3CN(CC4CC4)CC[C@H]3C)ccc2c1` (single isomer, unassigned) [Example 137c, (1-(cyclopropylmethyl)-4-methylpiperidin-3-yl)(6-methoxynaphthalen-2-yl)methanone], 5.96; that for `NCc1cc(C(=O)C2CCCN(CC3CC3)C2)cc2ccccc12` (centres unmarked) [Example 37, [4-(aminomethyl)-2-naphthyl]-[1-(cyclopropylmethyl)-3-piperidyl]methanone], 6.21. With `COc1ccc2cc(C(=O)[C@]3(O)CCCN(CC4CC4)C3)ccc2c1` (stereo in doubt) [Example 158b, (1-(cyclopropylmethyl)-3-hydroxypiperidin-3-yl)(6-methoxynaphthalen-2-yl)methanone] the figure was 4.94. On to `COc1ccc2cc(C(=O)C3CCCN(C4CCC4)C3)ccc2c1C` (centres unmarked) [Example 52, (1-cyclobutyl-3-piperidyl)-(6-methoxy-5-methyl-2-naphthyl)methanone], for which the pIC50 is 7.40. With `COc1ccc2cc(C(=O)C3CCCN(C4CC(F)(F)C4)C3)ccc2c1` (centres unmarked) [Example 66, [1-(3,3-difluorocyclobutyl)-3-piperidyl]-(6-methoxy-2-naphthyl)methanone] the figure was 7.17; with `COc1cccc(C(=O)[C@H]2CCCN(CC3CC3)C2)c1` (stereo in doubt) [Example 109b, (1-(cyclopropylmethyl)piperidin-3-yl)(3-methoxyphenyl)methanone], 5.89.

`CS(=O)(=O)c1ccc2cc(C(=O)C3CCCN(CC4CC4)C3)ccc2c1` (centres unmarked) [Example 169, (1-(cyclopropylmethyl)piperidin-3-yl)(6-(methylsulfonyl)naphthalen-2-yl)methanone] showed a pIC50 of 6.95. This pIC50 is 1.06 log units higher than that of the compound before. As to `COc1cc2ccc(C(=O)C3CCCN(CC4CC4)C3)cc2cn1` (centres unmarked) [Example 121, (1-(cyclopropylmethyl)piperidin-3-yl)(3-methoxyisoquinolin-7-yl)methanone], the pIC50 was 6.42. Compared with the last compound, the pIC50 is 0.53 log units lower. As to `COc1ccc2cc(C(=O)C3CN(CC4CC4)CCC3C(F)(F)F)ccc2c1` (single isomer, unassigned) [Example 138a, (1-(cyclopropylmethyl)-4-(trifluoromethyl)piperidin-3-yl)(6-methoxynaphthalen-2-yl)methanone], the negative-log IC50 (pIC50) is 6.86. With `COc1ccc2cc(C(=O)C3CN(C4CCC4)CCC3c3ccccc3)ccc2c1` (single isomer, unassigned) [Example 141b, (1-cyclobutyl-4-phenylpiperidin-3-yl)(6-methoxynaphthalen-2-yl)methanone] the figure was 7.01; with `COc1ccc2cc(C(=O)[C@H]3CN(CC4CC4)CC[C@@H]3C)ccc2c1` (single isomer, unassigned) [Example 137d, (1-(cyclopropylmethyl)-4-methylpiperidin-3-yl)(6-methoxynaphthalen-2-yl)methanone], 5.48.

In turn, `COc1ccc2cc(C(=O)[C@@H]3CN(C4CCC4)CC[C@@H]3C(C)C)ccc2c1` (single isomer, unassigned) [Example 143a, (1-cyclobutyl-4-isopropylpiperidin-3-yl)(6-methoxynaphthalen-2-yl)methanone] had a pIC50 of 6.20.

Turning to `COc1ccc2cc(C(=O)[C@@H]3CN(CC4CC4)CC[C@H]3C)ccc2c1` (single isomer, unassigned) [Example 137b, (1-(cyclopropylmethyl)-4-methylpiperidin-3-yl)(6-methoxynaphthalen-2-yl)methanone], the pIC50 was 7.03. On to `CCN1CCCC(C(=O)c2ccc3cc(OC)ccc3c2)C1` (centres unmarked) [Example 74, (1-ethyl-3-piperidyl)-(6-methoxy-2-naphthyl)methanone], for which the pIC50 is 5.94. With `O=C(c1ccc(Cl)cc1)[C@H]1CCCN(CC2CC2)C1` (stereo in doubt) [Example 116b, (4-chlorophenyl)(1-(cyclopropylmethyl)piperidin-3-yl)methanone] the figure was 5.85; with `COc1ccc(C(=O)C2CCCN(C3CCC3)C2)c(OC)c1` (centres unmarked) [Example 5, (1-cyclobutyl-3-piperidyl)-(2,4-dimethoxyphenyl)methanone], 5.60. With `O=C(c1cccc(Oc2ccccc2)c1)C1CCCN(CC2CC2)C1` (centres unmarked) [Example 21, [1-(cyclopropylmethyl)-3-piperidyl]-(3-phenoxyphenyl)methanone] the figure was 6.34. With `COc1ccc2cc(C(=O)C3CCCN(CC4CC4)C3)ccc2c1C` (centres unmarked) [Example 49, [1-(cyclopropylmethyl)-3-piperidyl]-(6-methoxy-5-methyl-2-naphthyl)methanone] the figure was 6.79; with `COc1ccc(C(=O)C2CCCN(CC3CC3)C2)cc1` (single isomer, unassigned) [Example 110a, (1-(cyclopropylmethyl)piperidin-3-yl)(4-methoxyphenyl)methanone], 5.70; with `O=C(c1cccc(Oc2ccccc2)c1)[C@H]1CCCN(CC2CC2)C1` [Example 28, [(3S)-1-(cyclopropylmethyl)-3-piperidyl]-(3-phenoxyphenyl)methanone], 5.77. Compound `CC[C@@H]1CCN(C2CCC2)C[C@@H]1C(=O)c1ccc2c(CC#N)c(OC)ccc2c1` (stereo in doubt) [Example 183c, 2-(6-(1-cyclobutyl-4-ethylpiperidine-3-carbonyl)-2-methoxynaphthalen-1-yl)acetonitrile] gave a negative-log IC50 (pIC50) of 7.11. Against the preceding compound, the pIC50 is 1.34 log units higher. With `Cc1ccc2cc(C(=O)C3CCCN(C4CCC4)C3)ccc2c1` (centres unmarked) [Example 165, (1-cyclobutylpiperidin-3-yl)(6-methylnaphthalen-2-yl)methanone hydrochloride] the figure was 6.79. Turning to `CC(O)c1cc(C(=O)C2CCCN(C3CCC3)C2)cc2ccccc12` (centres unmarked) [Example 64, (1-cyclobutyl-3-piperidyl)-[4-(1-hydroxyethyl)-2-naphthyl]methanone], the pIC50 was 7.36. The result for `COc1ccc2cc(C(=O)[C@@H]3CCCN(CC4CC4)C3)ccc2c1` [Example 7, [(3R)-1-(cyclopropylmethyl)-3-piperidyl]-(6-methoxy-2-naphthyl)methanone] reads 6.91.
